Experimental data: US4559360A, “Cysteine derivatives, a process for their preparation, and pharmaceutical compositions which contain them” (Magis Farmaceutici S.R.L., priority 1984, dated 1985)

Tests used:
Assay type in all cases: in vivo
[1] = Acute toxicity in the rat (LD50, Litchfield and Wilcoxon); details: in vivo, 7 days observation
Protocol: (§1) The acute toxicity of the proucts was studied on male and female adult mice of Swiss stock, and on male and female adult rats of Sprague-Dawley stock, by oral and subcutaneous administration. For each method of administration, the tested doses were administered in geometrical progression to 10 animals (5 males and 5 females). After treatment, the animals were kept under observation for 7 days. On termination of this period, the LD50 and the relative confidence limits were calculated by the Litchfield and Wilcoxon method (Pharmacol. Exp. Ther. 96-99, 1949).

[2] = Acute toxicity in the mouse (LD50, Litchfield and Wilcoxon); details: in vivo, 7 days observation
Protocol: as §1

[3] = test system: rats of Sprague-Dawley stock; assay: Acute toxicity in the rat (LD50, Litchfield and Wilcoxon); details: 7 days observation
Protocol: as §1

[4] = test system: mice of Swiss stock; assay: Acute toxicity in the mouse (LD50, Litchfield and Wilcoxon); details: 7 days observation
Protocol: as §1

Compound	LD50 at 168 h ([1]; oral)	LD50 at 168 h ([1]; sc, subcutaneous)	LD50 at 168 h ([2]; oral)	LD50 at 168 h ([2]; sc, subcutaneous)	LD50 ([3]; oral)	LD50 ([3]; subcutaneous)	LD50 ([4]; oral)	LD50 ([4]; subcutaneous)
CC(=O)Oc1ccccc1C(=O)N[C@@H](CSCC(=O)O)C(=O)O [MSF 01, S-(carboxymethyl)-N-(2-acetoxybenzoyl)-L-cysteine]	4800 mg/kg	4500 mg/kg	4800 mg/kg	4500 mg/kg				
CC(=O)Oc1ccccc1C(=O)OC(=O)CSC[C@H](N)C(=O)OC(=O)c1ccccc1OC(C)=O [MSF 03, S-carboxymethylcysteine bis-acetylsalicylanhydride]	4500 mg/kg	4200 mg/kg	4300 mg/kg	4100 mg/kg				
S-(carboxymethyl)-L-cysteine acetylsalicylanhydride [MSF 02]					4800 mg/kg	4500 mg/kg	4600 mg/kg	4400 mg/kg
